Consider 10 compounds from patent US10647738B2, “Xylene-based amphiphilic compound and use thereof” (Industry-University Cooperation Foundation Hanyang …, priority 2016, dated 2020).

Data set [1] in a line: Critical micelle concentration by fluorescence staining with diphenylhexatriene (DPH). The data set is classed as physicochemical. The settings on record: aqueous solution. The procedure:
While a method for measuring CMC is not particularly limited, a method widely known in the art may be used, and the measurement may be performed by, for example, a fluorescence staining method using diphenylhexatriene (DPH).
(§1) Specifically, the critical micellar concentration (CMC) was measured using fluorescence staining and diphenylhexatriene (DPH), and the hydrodynamic radii (Rh) of the micelles formed by agents were measured through a dynamic light scattering (DLS) experiment. The measured results are shown in Tables 1 and 2, compared with a conventional amphiphilic molecule (detergent), DDM.

A short description of data set [2]: Hydrodynamic radius and size distribution of micelles by dynamic light scattering (DLS). The class given is physicochemical. The settings on record: for Rh (nm), hydrodynamic radius of micelles: 1.0 wt % stated for M-/O-XMAs (FIG. 37); for size distribution of micelles (number of micelle sets): FIGS. 36 and 37. The procedure:
A method for measuring the radius of a micelle is not particularly limited, but a method well known in the art may be used, and for example, the measurement may be performed using a dynamic light scattering (DLS) experiment.
as §1

The target in data set [3] is T1, melibiose permease (MelB) (Salmonella typhimurium, UniProt P30878).
T1 construct: made in house; host or cells: Salmonella typhimurium DW2 cells (ΔmelB and ΔlacZY) (so in the source); membrane preparation
T1 sequence (P30878 whole entry): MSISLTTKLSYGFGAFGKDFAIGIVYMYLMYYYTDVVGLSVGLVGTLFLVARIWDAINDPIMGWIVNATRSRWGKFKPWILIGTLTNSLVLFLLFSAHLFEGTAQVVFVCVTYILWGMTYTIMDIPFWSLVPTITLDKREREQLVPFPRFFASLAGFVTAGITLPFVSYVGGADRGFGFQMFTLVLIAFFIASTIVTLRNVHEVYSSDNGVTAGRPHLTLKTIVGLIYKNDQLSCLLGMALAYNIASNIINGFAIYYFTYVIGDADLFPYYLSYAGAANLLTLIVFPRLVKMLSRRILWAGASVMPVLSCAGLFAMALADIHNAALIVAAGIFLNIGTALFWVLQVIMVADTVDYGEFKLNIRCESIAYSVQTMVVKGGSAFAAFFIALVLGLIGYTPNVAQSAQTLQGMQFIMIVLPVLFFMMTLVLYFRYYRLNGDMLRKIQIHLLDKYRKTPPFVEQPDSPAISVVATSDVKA
Put plainly: MelB extraction from membranes and thermostability, SDS-PAGE and western blotting. Conditions: for MelBSt stabilization ability compared with DDM: 1.5 wt % detergent, 0, 45, 55 and 65° C. The procedure:
An experiment for measuring the structural stability of the Salmonella typhimurium melibiose permease (MelB) protein due to XMAs was performed. The MelB protein was extracted on a membrane using XMAs and DDM, and the amount and structure of the extracted protein were analyzed by SDS-PAGE and western blotting. A concentration of the used compound was 1.5 wt %, and the protein was extracted at a different temperature (0, 45, 55, or 65° C.) to evaluate two kinds of performance such as protein extraction efficiency and stabilization ability of the compound at the same time. Membrane samples that were not treated with XMAs or DDM were used as controls.
Specifically, MelBSt stability due to DDM and XMAs was evaluated according to the method described in the paper (P. S. Chae, et al., Nat. Methods 2010, 7, 1003-1008) written by the inventor in 2010. The protein (MelBSt) was produced using plasmid pK95ΔAHB/WT MelBSt/CH10 encoding wild-type MelB with a 10-His tag at the C-terminus and Salmonella typhimurium DW2 cells (ΔmelB and ΔlacZY). Cell growth and membrane preparation were carried out according to the method described in the paper (Nat. Commun. 2014, 5, 3009) written by A. S. Ethayathulla et al. A protein assay was performed using a Micro BCA kit (Thermo Scientific, Rockford, Ill.). To measure solubilization/stability, MelBSt-containing membrane samples (final protein concentration of 10 mg/mL) were incubated with a solubilization buffer (20 mM sodium phosphate, pH 7.5, 200 mM NaCl, 10% glycerol, 20 mM melibiose) and 1.5% (w/v) DDM, P-XMAs (P-XMA-C8, P-XMA-C9, P-XMA-C10, P-XMA-C11 and P-XMA-C12), M-XMAs (M-XMA-C11, M-XMA-C12, M-XMA-C14, M-XMA-C16 and M-XMA-C18) or O-XMAs (O-XMA-C11, O-XMA-C12, O-XMA-C14, O-XMA-C16 and O-XMA-C18) at four different temperatures (0, 45, 55 and 65° C.) for 90 minutes. Following ultracentrifugation at 355,590 g in a Beckman Optima™ MAX ultracentrifuge using a TLA-100 rotor for 45 minutes at 4° C., 20 μg proteins were separated by SDS-16% PAGE, and then immunoblotted with a Penta-His-HRP antibody (Qiagen, Germantown, Md.). MelBSt was detected using a SuperSignal West Pico chemiluminescent substrate by an ImageQuant LAS 4000 Biomolecular Imager (GE Health Care Life Sciences).
(In western blotting, separated proteins are transferred to a membrane and probed.)

The mark [4] stands for this setting: 1.5 wt % detergent, 0° C., 90 minutes.
The mark [5] stands for this setting: 1.5 wt % detergent, 45° C., 90 minutes.
[6] abbreviates: 1.5 wt % detergent, 55° C., 90 minutes.

Several values for one entry are separate records, joined by “and”; a condition that tells them apart may be missing. Identical values can stand only once.

`CCCCCCCCCCCCCCCCCCC(CO[C@@H]1OC(CO)[C@@H](O[C@@H]2OC(CO)[C@@H](O)C(O)C2O)C(O)C1O)(CO[C@@H]1OC(CO)[C@@H](O[C@@H]2OC(CO)[C@@H](O)C(O)C2O)C(O)C1O)Cc1cccc(CC(CCCCCCCCCCCCCCCCCC)(CO[C@@H]2OC(CO)[C@@H](O[C@@H]3OC(CO)[C@@H](O)C(O)C3O)C(O)C2O)CO[C@@H]2OC(CO)[C@@H](O[C@@H]3OC(CO)[C@@H](O)C(O)C3O)C(O)C2O)c1` (stereo partly shown) [M-XMA-C18]: in data set [1], the “CMC” value is around 1.5 µM and the “CMC (wt %)” value is listed as around 0.0003 wt %. For the same compound, in data set [2], the “Rh (nm), hydrodynamic radius of micelles” value is 4.1 ± 0.04 nm. Also, the “MelB protein extraction efficiency” value in data set [3] (setting [4]) is recorded as “protein extraction efficiency at almost the same level as DDM”.

Regarding `CCCCCCCCCC(CO[C@@H]1OC(CO)[C@@H](O[C@H]2OC(CO)[C@@H](O)C(O)C2O)C(O)C1O)(CO[C@@H]1OC(CO)[C@@H](O[C@H]2OC(CO)[C@@H](O)C(O)C2O)C(O)C1O)Cc1ccc(CC(CCCCCCCCC)(CO[C@@H]2OC(CO)[C@@H](O[C@H]3OC(CO)[C@@H](O)C(O)C3O)C(O)C2O)CO[C@@H]2OC(CO)[C@@H](O[C@H]3OC(CO)[C@@H](O)C(O)C3O)C(O)C2O)cc1` (stereo partly shown) [P-XMA-C9], in data set [1], the “CMC” value is around 10 µM and the “CMC (wt %)” value was around 0.002 wt %. Also, in data set [2], the “micelle size compared with DDM” value was “smaller than DDM”; the “Rh (nm), hydrodynamic radius of micelles” value turned out to be 3.2 ± 0.01 nm; the “size distribution of micelles (number of micelle sets)” value (from here on “size distribution of micelles”) is “one set of micelles”. The “MelBSt stabilization ability compared with DDM” value in data set [3] is given as “higher MelBSt stabilization ability than DDM”. For the same compound, the “MelB protein extraction efficiency” value in data set [3] (setting [5]) is reported as “extraction efficiency at the same level as DDM”. Also, the “MelB protein extraction / maintained solubilization” value in data set [3] (setting [6]) was “higher MelBSt extraction ability than DDM”.

On to `CCCCCCCCCCCCCCCCCCC(CO[C@@H]1OC(CO)[C@@H](O[C@@H]2OC(CO)[C@@H](O)C(O)C2O)C(O)C1O)(CO[C@@H]1OC(CO)[C@@H](O[C@@H]2OC(CO)[C@@H](O)C(O)C2O)C(O)C1O)Cc1ccccc1CC(CCCCCCCCCCCCCCCCCC)(CO[C@@H]1OC(CO)[C@@H](O[C@@H]2OC(CO)[C@@H](O)C(O)C2O)C(O)C1O)CO[C@@H]1OC(CO)[C@@H](O[C@@H]2OC(CO)[C@@H](O)C(O)C2O)C(O)C1O` (stereo partly shown) [O-XMA-C18], for which, in data set [1], the “CMC (wt %)” value is given as around 0.0003 wt %. Besides, the “Rh (nm), hydrodynamic radius of micelles” value in data set [2] is listed as 3.9 ± 0.04 nm.

As for `CCCCCCCCCCCCCCC(CO[C@@H]1OC(CO)[C@@H](O[C@@H]2OC(CO)[C@@H](O)C(O)C2O)C(O)C1O)(CO[C@@H]1OC(CO)[C@@H](O[C@@H]2OC(CO)[C@@H](O)C(O)C2O)C(O)C1O)Cc1ccccc1CC(CCCCCCCCCCCCCC)(CO[C@@H]1OC(CO)[C@@H](O[C@@H]2OC(CO)[C@@H](O)C(O)C2O)C(O)C1O)CO[C@@H]1OC(CO)[C@@H](O[C@@H]2OC(CO)[C@@H](O)C(O)C2O)C(O)C1O` (stereo partly shown) [O-XMA-C14], in data set [1], the “CMC” value was around 3.0 µM and the “CMC (wt %)” value is given as around 0.0006 wt %. In addition, the “Rh (nm), hydrodynamic radius of micelles” value in data set [2] turned out to be 3.5 ± 0.04 nm.

With `CCCCCCCCCCCCCCC(CO[C@@H]1OC(CO)[C@@H](O[C@H]2OC(CO)[C@@H](O)C(O)C2O)C(O)C1O)(CO[C@@H]1OC(CO)[C@@H](O[C@H]2OC(CO)[C@@H](O)C(O)C2O)C(O)C1O)Cc1cccc(C[C@](CCCCCCCCCCCCCC)(CO[C@@H]2OC(CO)[C@@H](O[C@H]3OC(CO)[C@@H](O)C(O)C3O)C(O)C2O)CO[C@@H]2OC(CO)[C@@H](O[C@@H]3OC(CO)[C@@H](O)C(O)C3O)C(O)C2O)c1` (stereo partly shown) [M-XMA-C14], in data set [1], the “CMC” value is around 2.5 µM and the “CMC (wt %)” value is reported as around 0.0005 wt %. For the same compound, in data set [2], the “Rh (nm), hydrodynamic radius of micelles” value came out at 3.6 ± 0.07 nm. Moreover, the “solubilized MelB retained, percentage of total protein in untreated membrane sample” value in data set [3] (1.5 wt % detergent, 55° C.) is given as “approximately 70%”. Also, in data set [3] (setting [6]), the “MelB protein extraction / maintained solubilization” value was “most effective”.

With `CCCCCCCCCCCC(CO[C@@H]1OC(CO)[C@@H](O[C@@H]2OC(CO)[C@@H](O)C(O)C2O)C(O)C1O)(CO[C@@H]1OC(CO)[C@@H](O[C@@H]2OC(CO)[C@@H](O)C(O)C2O)C(O)C1O)Cc1ccccc1C[C@](CCCCCCCCCCC)(CO[C@@H]1OC(CO)[C@@H](O[C@H]2OC(CO)[C@@H](O)C(O)C2O)C(O)C1O)CO[C@@H]1OC(CO)[C@@H](O[C@@H]2OC(CO)[C@@H](O)C(O)C2O)C(O)C1O` (stereo partly shown) [O-XMA-C11], the “CMC (wt %)” value in data set [1] is given as around 0.0019 wt %. In addition, in data set [2], the “Rh (nm), hydrodynamic radius of micelles” value worked out at 3.0 ± 0.02 nm.

On to `CCCCCCCCC(CO[C@@H]1OC(CO)[C@@H](O[C@H]2OC(CO)[C@@H](O)C(O)C2O)C(O)C1O)(CO[C@@H]1OC(CO)[C@@H](O[C@H]2OC(CO)[C@@H](O)C(O)C2O)C(O)C1O)Cc1ccc(C[C@](CCCCCCCC)(CO[C@H]2CC(O)[C@H](O[C@H]3OC(CO)[C@@H](O)C(O)C3O)C(CO)O2)CO[C@@H]2OC(CO)[C@@H](O[C@H]3OC(CO)[C@@H](O)C(O)C3O)C(O)C2O)cc1` (stereo partly shown) [P-XMA-C8], for which, in data set [1], the “CMC (wt %)” value is listed as around 0.004 wt %. For the same compound, in data set [2], the “micelle size compared with DDM” value was “smaller than DDM”; the “Rh (nm), hydrodynamic radius of micelles” value is 2.7 nm and 2.7 ± 0.04 nm; the “size distribution of micelles” value was “one set of micelles”.

For the compound `CCCCCCCCCCC(CO[C@@H]1OC(CO)[C@@H](O[C@H]2OC(CO)[C@@H](O)C(O)C2O)C(O)C1O)(CO[C@@H]1OC(CO)[C@@H](O[C@H]2OC(CO)[C@@H](O)C(O)C2O)C(O)C1O)Cc1ccc(CC(CCCCCCCCCC)(CO[C@@H]2OC(CO)[C@@H](O[C@H]3OC(CO)[C@@H](O)C(O)C3O)C(O)C2O)CO[C@@H]2OC(CO)[C@@H](O[C@H]3OC(CO)[C@@H](O)C(O)C3O)C(O)C2O)cc1` (stereo partly shown) [P-XMA-C10], in data set [1], the “CMC” value is around 7 µM and the “CMC (wt %)” value is reported as around 0.001 wt %. In data set [2], the “Rh (nm), hydrodynamic radius of micelles” value stood at 3.5 ± 0.01 nm and the “size distribution of micelles” value is listed as “two sets of micelles having different radii”. Besides, the “MelBSt stabilization ability compared with DDM” value in data set [3] is reported as “higher MelBSt stabilization ability than DDM”. For the same compound, the “MelB protein extraction efficiency” value in data set [3] (setting [5]) is recorded as “extraction efficiency at the same level as DDM”. Also, the “MelB protein extraction / maintained solubilization” value in data set [3] (setting [6]) is listed as “higher MelBSt extraction ability than DDM”. Also, the MelB protein extraction entry in data set [3] (1.5 wt % detergent, 65° C., 90 minutes) is reported as “extracted MelBSt”.

For the compound `CCCCCCCCCCCCCCCC[C@@](CO[C@@H]1OC(CO)[C@@H](O[C@H]2OC(CO)[C@@H](O)C(O)C2O)C(O)C1O)(CO[C@@H]1OC(CO)[C@@H](O[C@@H]2OC(CO)[C@@H](O)C(O)C2O)C(O)C1O)Cc1cccc(C[C@](CCCCCCCCCCCCCCCC)(CO[C@@H]2OC(CO)[C@@H](O[C@H]3OC(CO)[C@@H](O)C(O)C3O)C(O)C2O)CO[C@@H]2CC(CO)[C@@H](O[C@H]3OC(CO)[C@@H](O)C(O)C3O)C(O)C2O)c1` (stereo partly shown) [M-XMA-C16], in data set [1], the “CMC” value was around 2.0 µM and the “CMC (wt %)” value is given as around 0.0004 wt %. In data set [2], the “Rh (nm), hydrodynamic radius of micelles” value is given as 3.9 ± 0.04 nm. In addition, the “MelB protein extraction efficiency” value in data set [3] (setting [4]) was “protein extraction efficiency at almost the same level as DDM”.

For the compound `CCCCCCCCCCCCCCCCC(CO[C@@H]1OC(CO)[C@@H](O[C@@H]2OC(CO)[C@@H](O)C(O)C2O)C(O)C1O)(CO[C@@H]1OC(CO)[C@@H](O[C@@H]2OC(CO)[C@@H](O)C(O)C2O)C(O)C1O)Cc1ccccc1CC(CCCCCCCCCCCCCCCC)(CO[C@@H]1OC(CO)[C@@H](O[C@@H]2OC(CO)[C@@H](O)C(O)C2O)C(O)C1O)CO[C@@H]1OC(CO)[C@@H](O[C@@H]2OC(CO)[C@@H](O)C(O)C2O)C(O)C1O` (stereo partly shown) [O-XMA-C16], in data set [1], the “CMC” value is around 2.0 µM and the “CMC (wt %)” value is given as around 0.0004 wt %. The “Rh (nm), hydrodynamic radius of micelles” value in data set [2] is recorded as 3.9 ± 0.06 nm.
